According to patent publication US20250034216A1, “STEREOSELECTIVE COVALENT LIGANDS FOR ONCOGENIC AND IMMUNOLOGICAL PROTEINS” (The Scripps Research Institute, priority 2021, published 2025):

What was measured:
[1] = target: T1, recombinant FLAG-PSME1 WT or C22A (Homo sapiens, UniProt Q06323); test: SEC analysis by western blot; format: cell-based; conditions: 22Rv1 cells expressing FLAG-PSME1 WT, 10 μM, 3 h
T1 construct: FLAG; expressed in transfected cells; host or cells: 22Rv1 pLenti3.3/TR (tetracycline-induced)
Procedure: (§1) For experiments using transiently overexpressed constructs (FLAG-PSME1 WT/C22A, HA-ACAT1 WT/C126A), Stable clonal 22Rv1 pLenti3.3/TR were transfected using polyethylenimine and treated with tetracycline ([…]) for 48 h prior to treatment with electrophilic probes.
(§2) Cells were lysed and fractioned by SEC. After acetone precipitation and resuspension, 4× gel loading buffer was added to eluates, and proteins were resolved using SDS-PAGE (4-20% acrylamide, Tris-glycine gel), and transferred to a nitrocellulose membrane. The membrane was blocked with 5% milk in Tris-buffered saline (20 mM Tris-HCl 7.6, 150 mM NaCl) with 0.1% tween (TBST) and incubated with primary antibody overnight. After TBST wash (3 times), the membrane was incubated with secondary antibody, washed with TBST again, developed with ECL western blotting detection reagents, and recorded on a Bio-Rad ChemiDoc MP. Relative band intensities were analyzed using ImageJ.

[2] = target: T2, recombinant FLAG-PSME1 WT or C22A (Homo sapiens, UniProt Q06323, C22A); test: SEC analysis by western blot; format: cell-based; conditions: 22Rv1 cells expressing FLAG-PSME1 C22A, 10 μM, 3 h
T2 construct: FLAG; expressed in transfected cells; host or cells: 22Rv1 pLenti3.3/TR (tetracycline-induced)
Procedure: as §1, §2

PSME1_C106 and PSME2_C91 = target: T3, PSME1_C106 and PSME2_C91 (Homo sapiens, UniProt Q06323); test: IA-DTB cysteine reactivity; format: binding; conditions: 22Rv1 cells, 20 μM, 1 h
T3 construct: endogenous in cells; host or cells: 22Rv1
Procedure: Sample preparation: Cells (adherent: 15 cm dishes, suspension: 2 million cells/mL) were treated with electrophilic probes in situ for indicated times and concentrations, washed with ice-cold PBS, and flash frozen in liquid nitrogen. Cell pellets were lysed by sonication (8 pulses, 40% power) in 500 μL ice-cold PBS supplemented with cOmplete protease inhibitors (1 tablet/10 mL of PBS). Whole cell lysates protein content was measured using a standard DC protein assay (Bio-Rad) and 500 μL (2 mg/mL protein content) were treated with 5 μL of 10 mM 1A-DTB (in DMSO) for 1 h at ambient temperature with occasional vortexing. Samples were methanol-chloroform precipitated with the addition of 500 μL ice-cold MeOH and 200 μL CHCl3, vortexed, and centrifuged (10 min, 10,000 g). Without disrupting the protein disk, both top and bottom layers were aspirated and the protein disk was washed with 1 mL ice-cold MeOH and centrifuged (10 min, 10,000 g). The pellets were allowed to air dry, and then re-suspended in 90 μL buffer (9 M urea, 10 mM DTT, 50 mM TEAB pH 8.5). […]
Data processing: Cysteine engagement ratios (probe vs DMSO) were calculated for each peptide-spectra match by dividing each TMT reporter ion intensity by the average intensity for the channels corresponding to DMSO treatment. […]

SF3B1 (~150 kDa protein) = target: T4, SF3B1 (~150 kDa protein) (Homo sapiens, UniProt O75533+Q7RTV0); test: Gel-based ABPP for SF3B1 cysteine engagement; format: binding; conditions: 22Rv1 cells, 24 h pre-treatment (1 μM WX-02-23/WX-02-43, 10 nM pladienolide B)
T4 construct: Cysteine engagement data from 22Rv1 cells treated; endogenous in cells; host or cells: 22Rv1
Procedure: 22Rv1 cells were treated with indicated compounds for 24 h, chased with click probe for 1 h in situ, harvested and lysed in PBS with protease inhibitors (cOmplete), and then normalized to 2.0 mg/mL. Reagents for the CuAAC click reaction were pre-mixed prior to addition to the samples (3 μL of click reaction mix for 25 μL of lysate). After 1 hour of click labeling, 4×SDS running buffer was added to samples, which were then analyzed by SDS-PAGE.

[3] = system: SF3B1 interacting proteins; test: SF3B1 co-immunoprecipitation-MS; format: cell-based, human; conditions: HEK293T cells, 5 μM WX-02-23 or 10 nM pladienolide B, 3 h
Procedure: HEK293T cells were treated in situ with DMSO, 5 μM of WX-02-23/WX-02-43, or 10 nM pladienolide B for 3 hours. Cells were harvested, washed with ice-cold PBS, and lysed in ColP lysis buffer (0.5% NP-40, 100 mM EPPS, 150 mM NaCl, cOmplete protease inhibitor). Lysates centrifuged at 16,000 g for 3 minutes, normalized to 2.0 mg/mL and 500 μL of each lysate was aliquoted to a clean eppendorf tube.
Lysates were incubated with 5 μL of anti-IgG or anti-SF3B1 (CST) for 2 hours at 4 C, followed by 1 hour with 25 μL of protein-A agarose beads. Bead were washed twice with ColP lysis buffer, and then twice with 100 mM EPPS, followed by elution with 8 M urea in EPPS at 65 C for 10 min. […] Samples were then trypsinized at 37 C overnight (2 ug of trypsin per sample), then TMT labeled and desalted.

T4 sequence (O75533 whole entry): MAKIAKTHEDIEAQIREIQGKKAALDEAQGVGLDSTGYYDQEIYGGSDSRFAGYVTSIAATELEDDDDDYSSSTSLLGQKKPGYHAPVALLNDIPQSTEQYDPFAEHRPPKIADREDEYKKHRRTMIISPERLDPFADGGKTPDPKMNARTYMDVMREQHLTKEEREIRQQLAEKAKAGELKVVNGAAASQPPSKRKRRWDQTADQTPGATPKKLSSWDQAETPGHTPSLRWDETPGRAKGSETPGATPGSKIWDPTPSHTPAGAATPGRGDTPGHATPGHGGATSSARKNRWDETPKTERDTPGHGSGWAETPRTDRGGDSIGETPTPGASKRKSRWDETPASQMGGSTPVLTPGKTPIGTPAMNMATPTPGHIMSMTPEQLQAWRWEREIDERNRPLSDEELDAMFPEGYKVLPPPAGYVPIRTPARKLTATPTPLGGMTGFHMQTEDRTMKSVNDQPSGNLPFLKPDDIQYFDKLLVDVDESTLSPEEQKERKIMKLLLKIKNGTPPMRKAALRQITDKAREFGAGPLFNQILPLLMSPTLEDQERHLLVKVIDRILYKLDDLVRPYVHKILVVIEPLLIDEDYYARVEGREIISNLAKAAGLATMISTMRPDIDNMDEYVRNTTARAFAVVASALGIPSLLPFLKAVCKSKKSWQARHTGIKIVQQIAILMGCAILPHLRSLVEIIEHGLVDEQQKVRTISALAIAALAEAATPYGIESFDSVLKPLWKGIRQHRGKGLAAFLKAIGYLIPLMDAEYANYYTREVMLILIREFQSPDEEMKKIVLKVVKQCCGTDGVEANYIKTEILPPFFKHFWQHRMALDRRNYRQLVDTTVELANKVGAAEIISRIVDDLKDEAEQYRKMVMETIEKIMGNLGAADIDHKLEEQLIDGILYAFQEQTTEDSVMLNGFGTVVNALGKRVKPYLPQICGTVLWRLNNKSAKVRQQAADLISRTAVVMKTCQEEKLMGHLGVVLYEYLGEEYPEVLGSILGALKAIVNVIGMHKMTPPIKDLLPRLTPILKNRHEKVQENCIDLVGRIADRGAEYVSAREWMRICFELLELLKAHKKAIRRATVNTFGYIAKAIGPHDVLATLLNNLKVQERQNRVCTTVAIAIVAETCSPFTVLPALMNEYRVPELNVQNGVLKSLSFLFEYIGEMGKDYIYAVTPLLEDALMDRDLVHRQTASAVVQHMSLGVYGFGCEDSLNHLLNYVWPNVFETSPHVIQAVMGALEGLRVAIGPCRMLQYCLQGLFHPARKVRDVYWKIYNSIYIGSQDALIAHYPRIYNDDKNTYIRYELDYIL
T4 sequence (Q7RTV0 whole entry): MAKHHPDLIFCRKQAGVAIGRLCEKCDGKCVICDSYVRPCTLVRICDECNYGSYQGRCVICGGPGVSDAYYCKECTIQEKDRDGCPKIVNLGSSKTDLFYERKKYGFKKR
T4 sequence (Q15393 whole entry partner): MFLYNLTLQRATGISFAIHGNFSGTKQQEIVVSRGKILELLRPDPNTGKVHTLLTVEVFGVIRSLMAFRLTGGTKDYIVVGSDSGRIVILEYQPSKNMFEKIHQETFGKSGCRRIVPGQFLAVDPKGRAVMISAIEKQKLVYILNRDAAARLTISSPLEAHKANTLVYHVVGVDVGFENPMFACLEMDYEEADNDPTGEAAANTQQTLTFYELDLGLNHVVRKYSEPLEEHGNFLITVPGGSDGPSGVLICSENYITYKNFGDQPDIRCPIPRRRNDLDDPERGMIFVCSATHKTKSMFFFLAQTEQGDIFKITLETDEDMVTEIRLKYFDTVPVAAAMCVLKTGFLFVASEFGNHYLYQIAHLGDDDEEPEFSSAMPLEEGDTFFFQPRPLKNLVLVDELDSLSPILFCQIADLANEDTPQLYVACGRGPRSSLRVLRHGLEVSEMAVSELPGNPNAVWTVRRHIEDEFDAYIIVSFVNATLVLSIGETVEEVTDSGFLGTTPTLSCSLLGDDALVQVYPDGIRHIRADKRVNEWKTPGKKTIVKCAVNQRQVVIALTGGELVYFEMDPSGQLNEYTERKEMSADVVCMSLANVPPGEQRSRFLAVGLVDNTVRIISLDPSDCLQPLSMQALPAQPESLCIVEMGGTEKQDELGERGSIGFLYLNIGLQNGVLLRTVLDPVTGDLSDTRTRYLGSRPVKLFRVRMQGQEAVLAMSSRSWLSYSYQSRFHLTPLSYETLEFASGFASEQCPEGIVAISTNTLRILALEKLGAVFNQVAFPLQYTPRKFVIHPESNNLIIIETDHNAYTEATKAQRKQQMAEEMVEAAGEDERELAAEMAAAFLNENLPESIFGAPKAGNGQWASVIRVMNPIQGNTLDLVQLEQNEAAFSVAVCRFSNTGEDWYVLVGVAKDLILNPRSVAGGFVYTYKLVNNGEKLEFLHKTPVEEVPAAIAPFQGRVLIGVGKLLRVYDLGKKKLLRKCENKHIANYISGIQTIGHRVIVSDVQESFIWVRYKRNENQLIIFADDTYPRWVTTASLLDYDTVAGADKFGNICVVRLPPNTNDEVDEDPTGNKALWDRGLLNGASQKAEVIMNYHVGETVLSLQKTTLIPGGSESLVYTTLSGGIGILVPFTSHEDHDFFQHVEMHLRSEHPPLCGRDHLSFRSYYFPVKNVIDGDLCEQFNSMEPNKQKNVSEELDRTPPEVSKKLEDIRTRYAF
T4 sequence (Q9BWJ5 whole entry partner): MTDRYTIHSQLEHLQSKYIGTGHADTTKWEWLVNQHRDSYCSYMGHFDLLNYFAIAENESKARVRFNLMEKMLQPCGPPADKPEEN
T3 sequence (Q06323 whole entry): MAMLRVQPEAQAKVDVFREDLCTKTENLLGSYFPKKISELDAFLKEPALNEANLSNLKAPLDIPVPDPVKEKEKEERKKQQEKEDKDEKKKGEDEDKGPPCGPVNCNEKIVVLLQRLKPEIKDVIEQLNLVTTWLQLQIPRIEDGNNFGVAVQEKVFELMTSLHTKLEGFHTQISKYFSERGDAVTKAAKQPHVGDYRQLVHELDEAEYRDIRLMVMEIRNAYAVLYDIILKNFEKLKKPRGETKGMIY
T1 sequence (Q06323 whole entry, stated change not applied): as the sequence (Q06323 whole entry) above
T2 sequence (Q06323 whole entry C22A): as the sequence (Q06323 whole entry) above, with C22A counted along it

Q: With `C=CC(=O)N1C[C@H](c2ccc(Br)cc2)[C@@H]1C(=O)Nc1cccc2cccnc12` [MY-1B, (2R,3S)-1-acryloyl-3-(4-bromophenyl)-N-(quinolin-8-yl)azetidine-2-carboxamide] as the compound, how does the “SEC size shift of recombinant WT-PSME1” value [1] read?
A: clear size shift

Q: And the “SEC size shift of recombinant PSME1 C22A mutant” value [2]?
A: unaffected

Q: What about the “IA-DTB reactivity of PSME1 C106 and PSME2 C91” value (PSME1_C106 and PSME2_C91) of the same compound?
A: striking, stereoselective increases in reactivity

Q: How did the “blockade of WX-01-10 labeling of the 150 kDa protein” value (SF3B1 (~150 kDa protein)) turn out when `C=CC(=O)N1[C@H](c2ccc3c(c2)OCO3)c2[nH]c3ccccc3c2C[C@H]1C(=O)N1CCOCC1` [WX-02-23, 1-((1R,3S)-1-(benzo[d][1,3]dioxol-S-yl)-3-(morpholine-4-carbonyl)-1,3,4,9-tetrahydro-2H-pyrido [3,4-b]indol-2-yl)prop-2-en-1-one] was run?
A: blocked

Q: What about the “SF3B1 interactions (DDX42 association)” value [3] of the same compound?
A: much greater extent
